Assay results reported in patent publication US20120129897A1, “BIS HETEROARYL INHIBITORS OF PRO-MATRIX METALLOPROTEINASE ACTIVATION” (priority 2010, published 2012).

What was measured:
[1] = molecular target: T1, MMP9 mediated gelatinase activity (Rattus norvegicus, UniProt P50282); assay: In situ zymography of gelatinase activity in livers of SCW-induced rats dosed with compound; assay type: in vivo; details: for Intensity (RLU × 10^6), Mean / Intensity (RLU × 10^6), Rat 1 / Intensity (RLU × 10^6), Rat 2 / Intensity (RLU × 10^6), Rat 3: Day 25-28, liver
T1 construct: from tissue; host or cells: frozen liver sections, female Lewis rats
T1 sequence (P50282 108-708): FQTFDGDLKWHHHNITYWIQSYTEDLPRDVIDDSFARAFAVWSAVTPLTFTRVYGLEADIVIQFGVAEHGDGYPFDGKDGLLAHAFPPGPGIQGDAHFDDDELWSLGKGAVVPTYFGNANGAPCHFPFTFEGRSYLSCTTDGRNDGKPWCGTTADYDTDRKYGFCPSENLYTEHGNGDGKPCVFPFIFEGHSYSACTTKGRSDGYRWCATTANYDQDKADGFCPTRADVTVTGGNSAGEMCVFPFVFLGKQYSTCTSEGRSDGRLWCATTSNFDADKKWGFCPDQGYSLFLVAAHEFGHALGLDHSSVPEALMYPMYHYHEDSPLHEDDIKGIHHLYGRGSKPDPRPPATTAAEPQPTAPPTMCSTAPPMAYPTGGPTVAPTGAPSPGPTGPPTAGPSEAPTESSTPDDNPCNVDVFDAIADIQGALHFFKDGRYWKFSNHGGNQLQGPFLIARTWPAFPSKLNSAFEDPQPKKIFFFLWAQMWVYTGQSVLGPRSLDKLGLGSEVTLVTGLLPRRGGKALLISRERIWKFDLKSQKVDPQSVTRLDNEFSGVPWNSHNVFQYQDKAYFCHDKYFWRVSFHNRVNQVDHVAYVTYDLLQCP
From the text: In situ zymography provides an alternative approach to assess active MMP9 in tissues (Frederiks). Tissue sections are overlain with fluorescene-conjugated gelatin wherein the conjugation is sufficiently dense to cause the fluorescene to be dye-quenched (DQ). Proteolytic degradation of the DQ-gelatin releases the fluorescene from the quenching effect giving rise to bright green fluorescence at the site of degradation. Because in situ zymography requires the use of frozen sections, calcified tissues are problematic. However, an additional feature of the SCW arthritis model is the development of hepatic granulomatous disease (J Immunol; 1986; 137:2199-2209), and MMP9 reportedly plays a role in macrophage recruitment in the granulomas response to mycobacteria (Infect Immun; 2006; 74:6135-6144). Consequently, granulomatous livers from SCW-treated rats were assessed for active MMP9 by in situ zymography.
As described above, Female Lewis (LEW/N) rats, 5-6 weeks of age (80-100 g) were injected (i.p.) with saline or SCW PG-PS. On day 28, when the granulomatous response was well established, animals were sacrificed and livers were frozen in OCT cryo-sectioning medium and […] sections were cut on a Cryome HM 500 M cryotome and mounted on glass microscope slides. Sections were air dried briefly. MMP9 was confirmed as the source of the gelatinase activity in the liver by treating liver sections with monoclonal antibodies directed against the active site of the two major gelatinases MMP9 and MMP2. Liver sections overlain with 50 μL of 100 μg/mL neutralizing mouse monoclonal antibodies directed against MMP9 (Calbiochem, clone 6-6B), or MMP2 (Millipore, clone CA-4001), or with PBS for 1 hr at room temperature. Tissues were rinsed once with PBS, blotted, and briefly air dried and then overlain with DQ-gelatin (Invitrogen) dissolved to 1 mg/mL in deionized water and then diluted 1:10 in 1% wt/vol low gelling point agarose type VII (Sigma) in PBS. The sections were covered with coverslips, incubated in the dark at room temperature for 20 min, and imaged on an Olympus IX80 inverted microscope fitted with fluorescence optics, using SlideBook™ imaging software (Intelligent Imaging Innovations, Inc., Philadelphia, Pa.; version 5.0). Fluorescence intensity was determined (Table 8). When compared to a saline-treated rat, gelatinase activity was abundantly expressed in granulomatous liver sections obtained from a rat with SCW arthritis.
Next, liver in situ zymography was used to assess the relative presence of active MMP9 in rats dosed with vehicle vs. Compound-α. Female Lewis (LEW/N) rats, 5-6 weeks of age (80-100 g) were injected (i.p.) with saline or SCW PG-PS. Commencing on day 25, randomized groups of rats (n=3 rats/group) received vehicle or 20 or 50 mg/kg Compound-α BID by oral gavage. Vehicle consisted of an aqueous mixture containing 2% (v:v) N-methylpyrrolidone, 5% (v:v) glycerine, and 20% (w:v) captisol. Treatment continued daily through the morning of day 28. Four hrs after the AM dose on day 28, rats were sacrificed and livers assessed for active MMP9 by in situ zymography (Table 9). Gelatinase activity was increased markedly in SCW-induced rats, but activity was reduced by approximately 80% in animals treated with 50 mg/kg Compound-α.

[2] = system: female Lewis rats with SCW-induced arthritis; assay: Efficacy in rats with SCW-induced arthritis (ankle thickness, clinical scores); assay type: in vivo, rat; details: 5, 20, 50 mg/kg BID oral, Day 18-26
From the text: A polyarthritis can be induced in female Lewis rats following i.p. administration of streptococcal cell wall (SCW) […] (PG-PS) (J Exp Med 1977; 146:1585-1602). The model has an acute phase (days 3-7) that is complement and neutrophil-dependent and that resolves. A chronic erosive phase begins at about day ten and is dependent on the development of specific T cell immunity to the PG-GS, which resists digestion and remains present in synovial macrophages for months. Like rheumatoid arthritis, SCW-induced arthritis is reduced by TNF inhibitors, and the dependence of SCW-induced arthritis on macrophages (Rheumatology; 2001; 40:978-987) and the strong association of rheumatoid arthritis severity with synovial-tissue macrophage counts (Ann Rheum Dis; 2005; 64:834-838) makes SCW-arthritis an attractive model for testing potential therapeutic agents. SCW PG-PS 10S (Beckton Dickinson Cat#210866) suspended in saline was vortexed for 30 seconds and sonicated for 3 min with a probe type sonicator prior to injection. […]
To induce arthritis, Female Lewis (LEW/N) rats, 5-6 weeks of age (80-100 g) were injected (i.p.) with SCW PG-PS as described above. […] Each ankle was measured 3 times and averaged, and treatment groups were randomized based on ankle thickness (Table 6). […]

Structure (SMILES): Cc1nc(C)c(-c2csc(Nc3cc(S(N)(=O)=O)ccc3OC(C)C)n2)s1 [Compound-α, 3-(2′,4′-Dimethyl-[4,5′]bithiazolyl-2-ylamino)-4-isopropoxy-benzenesulfonamide.HBr]
- Intensity (RLU × 10^6), Mean ([1]; 20 mg/kg BID oral): 55.2 RLU × 10^6
- Intensity (RLU × 10^6), Rat 1 ([1]; 20 mg/kg BID oral): 43.0 RLU × 10^6
- Intensity (RLU × 10^6), Rat 2 ([1]; 20 mg/kg BID oral): 69.0 RLU × 10^6
- Intensity (RLU × 10^6), Rat 3 ([1]; 20 mg/kg BID oral): 53.7 RLU × 10^6
- Reduction of liver gelatinase activity ([1]; 50 mg/kg BID oral, Day 25-28): approximately 80%
- Intensity (RLU × 10^6), Mean ([1]; 50 mg/kg BID oral): 11.1 RLU × 10^6
- Intensity (RLU × 10^6), Rat 1 ([1]; 50 mg/kg BID oral): 3.2 RLU × 10^6
- Intensity (RLU × 10^6), Rat 2 ([1]; 50 mg/kg BID oral): 25.6 RLU × 10^6
- Intensity (RLU × 10^6), Rat 3 ([1]; 50 mg/kg BID oral): 4.5 RLU × 10^6
- Ankle thickness measurements, effect of treatment [2]: dose-dependent decrease in ankle thickness measurements
- Clinical score measurements, effect of treatment [2]: dose dependent decrease in clinical score measurements
